The subject of one series is Endothelin-1 receptor. The series is described as follows: Endothelin-1 induced contraction of isolated artery rings. Details: species or system mice. Particulars: all concentrations of ET-1. The source says:
FIG. 15 represents effect of Compound 1 on endothelin-1 concentration-response curves. (A) Concentration-response curve of endothelin-1 in isolated carotid arteries of vehicle-treated (Control) and Compound 1 treated mice. (B) Concentration-response curve of endothelin-1 in isolated carotid arteries of vehicle-treated (Control) and compound 3 along with compound 8 treated mice.
To test for the selectivity of the putative Endothelin-1 receptor, we applied endothelin-1 or Compound 1 in a concentration dependent manner to the […] to observe its contraction inhibition activity (FIG. 15).

The test system of series [1] is HUVECs. The experiment in a line: Capillary-like tube formation assay (tubulogenesis). Particulars: for tubule formation: 6 h. The series is classed as cell-based, human. How it is done:
FIG. 2 represents effect of Compound 1 on capillary tube formation of HUVECs. Endothelial cells in Matrigel were incubated with ECM basal medium in the presence of compound 1 at the indicated concentrations for 6 h. Cell viability was assessed by Calcein-AM dye added few min. before the completion of 6 h. then photographs at 10×magnification were taken using an inverted microscope. The tubule length of HUVECs was quantified by Leica QWin software. Tubule network formation is expressed as a percentage of that vehicle (0.1% DMSO) treated cells (control).
FIG. 9 represents effect of racemic mixture (chiral isomer 1-1 and chiral isomer 2-1) of Compound 1 on capillary tube formation of HUVECs. Endothelial cells seeded in matrigel were incubated at the indicated concentrations of compound 1 racemic mixtures (1-1 and 2-1) with ECM basal medium for 6 h. Calcein-AM treatment was added to the ECs few minutes before completion of 6 h and pictures were captured using an inverted microscope at 10×magnification. The tubular structures of HUVECs were measured using Leica QWin software and tubulogenesis was expressed as a % of that vehicle (0.1% DMSO) treated cells (control) well.
HUVEC cells were incubated with or without sunitinib (20 nM) for 6 h at indicated concentrations of chiral isomers of Compound 1 (1-1 and 2-1). Photographs were taken using an inverted microscope at 10×magnification after Calcein-AM treatment to the ECs few minutes before completion of 6 h. The tubule length of HUVECs was quantified by Leica QWin software represented as a % of that vehicle (0.1% DMSO) treated cells (control) well.
To examine the effect of Compound 1 on angiogenesis, capillary tube formation assay was performed on regular or reduced growth factor Matrigel, taking VEGF (50 ng/mL) treated cells as a positive control and sunitinib (50 nM) as a negative control (FIG. 2). HUVECs seeded onto the matrigel with compound 1 at different concentrations of (10 μM, 5 μM, 1 μM, 800 nM, 500 nM, 250 nM, 125 nM, 75 nM, 50 nM, 25 nM and 10 nM) were incubated for six hours.
HUVECs (Human Umbilical Vein Endothelial Cells) were seeded onto the pre-coated matrigel (CORNING; 354230) in 96 wells plate at the rate of 11000 cells/well in incomplete ECM basal medium. Control group received vehicle, VEGF at 50 ng/mL as a positive and sunitinib at 50 nM as a negative control were used. Compound 1 at different dose concentrations (10 μM, 5 μM, 1 μM, 800 nM, 500 nM, 250 nM, 100 nM, 75 nM, 50 nM and 25 nM) were employed on seeded HUVECs in incomplete medium. Post 6 h of incubation Calcein-AM (Invitrogen) was added to all the respective groups and then the tubule pattern was observed and photographs were taken using an inverted fluorescent microscope (DM 6000, Leica Microsystems, USA). Relative tubule lengths were measured using Leica Q-Win software version 3.5.1. (Leica Microsystems, Switzerland).

Series [2] in a line: Intramuscular pharmacokinetic study of bulk compound 1 and chiral isomers. In kind it is in vivo, male Sprague Dawley (SD) rats. Particulars: IM 20 mg/kg. How it is done: In vivo pharmacokinetic study was performed in male Sprague Dawley (SD) rats (n=4). Intramuscular (IM) formulation of bulk of compound 1 as well as chiral isomer-1 and chiral isomer-2 was prepared by dissolving accurately weighed quantity of compound 1 (20 mg) in 1 mL of olive oil followed by vortexing for 2 min and sterilize through syringe filter. Blood samples were collected from the retro orbital plexus of rats under light ether anesthesia into microfuge tubes containing heparin as an anti-coagulant at 0.25, 0.5, 1, 3, 5, 7, 9, 24, 30, 48 and 72 hours post-dosing after intramuscular dose. Plasma sample was harvested by centrifuging the blood at 13000 rpm for 10 min on Sigma 1-15 K (Frankfurt, Germany) and stored frozen at −70±10° C. until bioanalysis. Each plasma sample (100 μl) was processed using protein precipitation method using 200 μl acetonitrile containing medicarpine as internal standard (I.S.) as protein precipitant, and 10 μl of the supernatant was injected for LC-MS/MS.

Series [3] is described as follows: Intramuscular pharmacokinetic study of chiral isomers 1 and 2. The series is classed as in vivo, male Sprague Dawley (SD) rats. As to conditions: IM 20 mg/kg. How it is done:
In vivo pharmacokinetic study was performed in male Sprague Dawley (SD) rats (n=4). Intramuscular (IM) formulation of compound 1 Chiral 1 and 2 were prepared by individually dissolving accurately weighed quantity of compound 1, chiral isomers 1 and 2 (20 mg) in 1 mL of olive oil followed by vortexing for 2 min and sterilize through syringe filter. Blood samples were collected from the retro orbital plexus of rats under light ether anesthesia into microfuge tubes containing heparin as an anti-coagulant at 0.25, 0.5, 1, 3, 5, 7, 9, 24, 30, 48 and 72 hours post-dosing after intramuscular dose. Plasma sample was harvested by centrifuging the blood at 13000 rpm for 10 min on Sigma 1-15 K (Frankfurt, Germany) and stored frozen at −70±10° C. until bioanalysis. Each plasma sample (100 μl) was processed using protein precipitation method using 200 μl acetonitrile containing medicarpine as internal standard (I.S.) as protein precipitant, and 10 μl of the supernatant was injected for LC-MS/MS.

For series [4], the system named is HUVECs. The series is described as follows: Wound healing (scratch) migration assay. In kind it is cell-based, human. As to conditions: 50 ng/mL, positive control. How it is done: FIG. 4 represents In vitro wound closure assay showing effect of Compound 1 migration of HUVECs. (A) ECs were incubated with 2.5% FBS in the presence of VEGF, sunitinib and Compound 1 at the indicated concentrations for 24 h after linear scratched wounds were created in the confluent cells. Post treatment photographs were taken at 0 hr, 12 h and 24 h using an inverted microscope at 10×magnification. (B) Data were quantified using Image J software and graphs were plotted by calculating the % migration of that vehicle treated cells (control). Compound 1 inhibits the wound closure by ECs in a dose dependent manner. The values represent the mean±SEM from (n=3) independent experiments with significant difference compared from control at *p<0.05.
As per previous reports, some anti-angiogenic compounds also show anti-migratory effect by modulating the expression of proteins responsible for blood vessels formation. A Scratch was made to the confluent endothelial cells containing VEGF (50 ng/mL) and sunitinib (50 nM) as a positive and negative control respectively and Compound 1 at 250 nM and 125 nM as a test compound. […] This might contribute to its potent anti-angiogenic effect.
Endothelial cells were grown inside 6-well plate at a confluency rate of 90%. And then with the help of 200 μL tip a straight line scratch was made in the middle of the grown ECs. After giving a gentle wash with 1×PBS, control group received vehicle in 2.5% FBS media. VEGF at 50 ng/mL as a positive control and sunitinib at 50 nM concentration was used as a negative control. Compound 1 at a dose concentration of 250 nM and 125 nM were used onto the wounded cells to observe its anti-migratory effect. After 0 h, 12 h and 24 h of post treatment the wound closure area was observed and micrographed using an inverted microscope (Olympus, Centre Valley, Pa., USA) and were analysed by Image J software. Control well at 100% was used to express inhibition percentage and the assay was performed for three-five times independently.

Take `CCOC(=O)C1N=C1CCc1ccc(Cl)cc1` (centres unmarked) [Compound 8, Ethyl 3-(4-chlorophenethyl)-2H-azirine-2-carboxylate]: the “effect on ET-1 induced contraction of aortic rings” value in the series on Endothelin-1 receptor is “no effect”. In addition, the concentration for half-maximal inhibition (IC50) with HUVECs [1] (Homo sapiens, HUVEC, endothelial tubule network assay, anti-angiogenic activity, read-out: IC50 value) was 500 nM.
Consider `CCCCCCCCCCCCC1=NC1C(=O)OCC` (centres unmarked) [Compound 3, Ethyl 3-dodecyl-2H-azirine-2-carboxylate], for which the “effect on ET-1 induced contraction of aortic rings” value in the series with Endothelin-1 receptor is “no effect”. Further, the IC50 value entry with HUVECs [1] (endothelial tubule network assay, result in words) is given as “Not Active”.
With `CCOC(=O)[C@H]1N=C1CCc1ccc(OC)cc1` [chiral isomer (2-1)], the Plasma concentration in series [2] (0.25 h) stood at 409 ± 150 ng/mL; in series [2] (0.5 h), 767.6 ± 50 ng/mL; in series [2] (1 h), 557 ± 260 ng/mL; in series [2] (3 h) it was 745 ± 120 ng/mL; in series [2] (5 h), 762 ± 340 ng/mL; in series [2] (7 h), 536 ± 170 ng/mL. The Plasma concentration in series [2] (9 h) amounted to 463 ± 370 ng/mL; in series [2] (24 h) it was 323 ± 40 ng/mL; in series [2] (30 h), 246 ± 120 ng/mL; in series [2] (48 h), 169.3 ± 100 ng/mL; in series [2] (72 h), 44.3 ± 6 ng/mL; in series [3] (0.25 h) it was 6640 ± 2170 ng/mL. Besides, the Plasma concentration was found to be 7440 ± 400 ng/mL in series [3] (0.5 h); 9270 ± 1960 ng/mL in series [3] (1 h); 10820 ± 1130 ng/mL in series [3] (3 h); 7500 ± 560 ng/mL in series [3] (5 h); 4300 ± 620 ng/mL in series [3] (7 h); 2000 ± 660 ng/mL in series [3] (9 h). Besides, the Plasma concentration amounted to 180 ± 13 ng/mL in series [3] (24 h), 130 ± 15 ng/mL in series [3] (30 h), 76 ± 4 ng/mL in series [3] (48 h) and 44 ± 6 ng/mL in series [3] (72 h). The AUC0-72 amounted to 19540 ± 3260 ng·h/mL in series [2] (mean ± S.D., n = 4) and 84900 ± 6020 ng·h/mL in series [3] (mean ± S.D., n = 4). For the same compound, the “AUC0-∞” value stood at 20644 ± 2977 ng·h/mL in series [2] (mean ± S.D., n = 4) and 85480 ± 6100 ng·h/mL in series [3] (mean ± S.D., n = 4). Moreover, the Cl in series [2] (mean ± S.D., n = 4) came out at 16.4 ± 2.17 mL/min/kg; in series [3] (mean ± S.D., n = 4), 3.83 ± 0.17 mL/min/kg. In addition, the maximum concentration (Cmax) amounted to 945 ± 143 ng/mL in series [2] (mean ± S.D., n = 4) and 10820 ± 1130 ng/mL in series [3] (mean ± S.D., n = 4). The Tmax in series [2] (mean ± S.D., n = 4) was 3 ± 2 h; in series [3], 3 h. Further, the Vd stood at 24.497 ± 6.339 L/kg in series [2] (mean ± S.D., n = 4) and 3.9 ± 0.24 L/kg in series [3] (mean ± S.D., n = 4). The t1/2 in series [2] (mean ± S.D., n = 4) came out at 17.11 ± 2.454 h; in series [3] (mean ± S.D., n = 4), 9.14 ± 0.12 h. Further, the MRT in series [2] (mean ± S.D., n = 4, in h (unit assumed)) amounted to 22.671 ± 4.539. Further, the tubule formation result in the series with HUVECs [1] (100 nM combined with sunitinib at 20 nM) is “around 30%”; with HUVECs [1] (250 nM), 100%; with HUVECs [1] (500 nM) it was 50%; in the series with HUVECs [1] (500 nM, listed as isomer (2-1)), 50%; in the series on HUVECs [1] (1 μM), 50%.
Compound VEGF [reference compound] showed a wound closure in the series on HUVECs [4] of 90%.

The values are drawn from patent publication US20230234920A1, “Azirine Containing Compounds as Anti-Angiogenesis Agents and a Process for the Preparation Thereof” (COUNCIL OF SCIENTIFIC & INDUSTRIAL RESEARCH, priority 2020, published 2023).
